Experimental findings from ChEMBL document CHEMBL2069213, “Synthesis and evaluation of small libraries of triazolylmethoxy chalcones, flavanones and 2-aminopyrimidines as inhibitors of mycobacterial FAS-II and PknG” (Bioorg Med Chem, 2012) are described below.

The structures appear in SMILES notation.

For experiment [1], the system named is Mycolicibacterium aurum. In words: Growth inhibition of Mycobacterium aurum expressing Mycobacterium tuberculosis H37Rv kas operon in fusion Escherichia coli lacZ gene at 50 uM incubated for 12 hrs. It counts as functional. The following applies: read-out: GI.
For experiment [2], the system named is Mycolicibacterium aurum. Nature of the experiment: Growth inhibition of Mycobacterium aurum expressing Mycobacterium tuberculosis H37Rv kas operon in fusion Escherichia coli lacZ gene at 100 uM incubated for 12 hrs. The following applies: read-out: GI. The class given is functional.

For the compound `CCCCCCn1cc(COc2ccc(C(=O)/C=C/c3ccccc3)c(O)c2)nn1`, the inhibition of growth at 50 µM in experiment [1] turned out to be 16.8%. Further, the inhibition of growth at 100 µM in experiment [2] came to 57.7%.
The like results for `O=C(/C=C/c1cccc2ccccc12)c1ccc(OCc2cn(Cc3ccc(Br)cc3)nn2)cc1O` were, in that order, 0% and 63.2%.
For `CCCCCCn1cc(COc2ccc(C(=O)/C=C/c3cccc4ccccc34)c(O)c2)nn1` the same measures were 5.5% and 18.8%.
The like results for `C#CCOc1ccc(/C=C/C(=O)c2ccc(OCc3cn(Cc4ccccc4)nn3)cc2O)cc1` were, in that order, 0% and 22%.
In the case of `CCCCCCn1cc(COc2ccc(C(=O)/C=C/c3ccc(Cl)cc3)c(O)c2)nn1`, the inhibition of growth at 50 µM in experiment [1] was determined as 6.1%. Moreover, in experiment [2], the inhibition of growth at 100 µM worked out at 59%.
Regarding `O=C1CC(c2ccc(Cl)cc2)Oc2cc(OCc3cn(Cc4ccccc4)nn3)ccc21` (centres undefined), the inhibition of growth at 50 µM in experiment [1] amounted to 46.9%. Further, in experiment [2], the inhibition of growth at 100 µM stood at 79.8%.
Take `O=C(/C=C/c1ccc(Cl)cc1)c1ccc(OCc2cn(Cc3ccccc3)nn2)cc1O`: the inhibition of growth at 50 µM in experiment [1] was determined as 11.6%. Besides, the inhibition of growth at 100 µM in experiment [2] came out at 28%.
The like results for `CC(C)c1ccc(/C=C/C(=O)c2ccc(OCc3cn(Cc4ccccc4)nn3)cc2O)cc1` were, in that order, 0% and 12.7%.
As to `O=C(/C=C/c1c(F)cccc1Cl)c1ccc(OCc2cn(Cc3ccccc3)nn2)cc1O`, the inhibition of growth at 50 µM in experiment [1] stood at 17.6%. Moreover, the inhibition of growth at 100 µM in experiment [2] came out at 74.5%.
With `CC(C)c1ccc(/C=C/C(=O)c2ccc(OCc3cn(Cc4ccc(Br)cc4)nn3)cc2O)cc1`, in experiment [1], the inhibition of growth at 50 µM is 0%. In addition, the inhibition of growth at 100 µM in experiment [2] is 17.8%.
For `CCCCCCn1cc(COc2ccc(C(=O)/C=C/c3ccc(OC)cc3)c(O)c2)nn1`, in experiment [1], the inhibition of growth at 50 µM is 6.2%. Moreover, the inhibition of growth at 100 µM in experiment [2] is 44.7%.
The like results for `CCCCCCn1cc(COc2ccc(C(=O)/C=C/c3ccc(C(C)C)cc3)c(O)c2)nn1` were, in that order, 0% and 31.4%.
On to `COc1ccc(/C=C/C(=O)c2ccc(OCc3cn(Cc4ccccc4)nn3)cc2O)cc1`, for which the inhibition of growth at 50 µM in experiment [1] was 25.5%. Further, the inhibition of growth at 100 µM in experiment [2] is 68.7%.
The like results for `C#CCOc1ccc(/C=C/C(=O)c2ccc(OCc3cn(CCCCCC)nn3)cc2O)cc1` were, in that order, 39.6% and 56%.
For `CCCCCCn1cc(COc2ccc3c(c2)OC(c2ccc(C(C)C)cc2)CC3=O)nn1` (centres undefined) the same measures were 34.1% and 56.4%.
In the case of `O=C1CC(c2ccccc2)Oc2cc(OCc3cn(Cc4ccc(Br)cc4)nn3)ccc21` (centres undefined), in experiment [1], the inhibition of growth at 50 µM stood at 15.8%. Also, the inhibition of growth at 100 µM in experiment [2] was 66.1%.
For the compound `O=C(/C=C/c1cccc2ccccc12)c1ccc(OCc2cn(Cc3ccccc3)nn2)cc1O`, the inhibition of growth at 50 µM in experiment [1] amounted to 2.6%. Moreover, in experiment [2], the inhibition of growth at 100 µM is 51.6%.
For `CC(C)c1ccc(C2CC(=O)c3ccc(OCc4cn(Cc5ccc(Br)cc5)nn4)cc3O2)cc1` (centres undefined), the inhibition of growth at 50 µM in experiment [1] is 31%. In addition, in experiment [2], the inhibition of growth at 100 µM amounted to 72.5%.
As for `O=C1CC(c2ccccc2)Oc2cc(OCc3cn(Cc4ccccc4)nn3)ccc21` (centres undefined), in experiment [1], the inhibition of growth at 50 µM was 27%. Besides, the inhibition of growth at 100 µM in experiment [2] worked out at 74.8%.
As to `CCCCCCn1cc(COc2ccc3c(c2)OC(c2ccccc2)CC3=O)nn1` (centres undefined), the inhibition of growth at 50 µM in experiment [1] came out at 19%. For the same compound, in experiment [2], the inhibition of growth at 100 µM is 70.2%.
Regarding `C#CCOc1ccc(C(C)=O)c(O)c1`, the inhibition of growth at 50 µM in experiment [1] was 2%. The inhibition of growth at 100 µM in experiment [2] came out at 35.6%.
For `O=C(/C=C/c1ccc(Br)cc1)c1ccc(OCc2cn(Cc3ccc(Br)cc3)nn2)cc1O` the same measures were 11.6% and 28%.
